We go through eight compounds from publication PMC10106456 (Communications Biology, 2023).

One data set concerns Tet(X2). The conditions noted are these: surface-localized single point mutation; cited from earlier work.
For data set [1], the system named is E. coli DH5αZ1 + pZE24 (empty). Nature of the data set: Microbroth dilution antibiotic susceptibility test (MIC). Conditions: Escherichia coli, 20 h, drug alone. It counts as cell-based. The procedure: (§1) For high expression, 1 mM IPTG fully relieves repression by LacI[44] thus only IPTG was used in whole-cell tests. Chemically-competent E. coli DH5αZ1 (Expressys) was transformed with these pZE24 constructs by heat shock. Minimum inhibitory concentrations (MICs) were measured as per Clinical and Laboratory Standards Institute (CLSI) guidelines. Substrates and inhibitors were dissolved in DMSO (20 mg/mL) then diluted to working concentrations in cation-adjusted Mueller-Hinton II broth supplemented with 50 μg/mL kanamycin (Supplementary Data 2). Antibiotic susceptibility testing panels were prepared in 96-well flat-bottom microplates (Corning) by two-fold serial dilution of the antibiotic of interest (Supplementary Data 3). […] Liquid cultures of each strain were grown to exponential phase then diluted to a standard concentration (OD600 = 0.0015, which is equivalent to double ~5 × 10^5 CFU/mL) and inoculated into each panel at a 1:1 ratio. […] Each strain-antibiotic/inhibitor combination was tested in triplicate, along with no-drug and no-cell controls. Inoculated panels were sealed with Breathe-Easy membranes (Sigma-Aldrich) and incubated at 37 °C for 20 h. MICs were scored by absorbance measurements at 600 nm (OD600) using the Synergy H1 microplate reader (Biotek Instruments, Inc).
Background: Dilution methods test growth across graded concentrations, often in twofold steps.

In data set [2] the test system is E. coli DH5αZ1 + pZE24-tet(X6). The data set is described as above. Conditions: Escherichia coli. In kind it is cell-based. The method, then: as §1
The test system of data set [3] is E. coli DH5αZ1 + pZE24-tet(X7). Described as above. The conditions noted are these: Escherichia coli, 20 h. In kind it is cell-based. The procedure: as §1
A further data set has as its target Tet(X6) (Proteus genomosp. 6, UniProt A0A6I7DAX3). Conditions: for Sigmoidal curve fit, best-fit Kprime / Sigmoidal curve fit, best-fit Vmax / Sigmoidal curve fit, best-fit h / Sigmoidal curve fit, best-fit Khalf: allosteric sigmoidal model, Supplementary Data 1; for Sigmoidal curve fit, best-fit Khalf: [Sub] in μM; for Michaelis-menten nonlinear fit, best-fit Kcat / Michaelis-menten nonlinear fit, best-fit Vmax: supplementary source data; for Michaelis-menten nonlinear fit, best-fit Vmax: Tet(X6) 0.4 µM. The method, then:
All experiments were prepared open to air in non-degassed buffer solutions at room temperature. […] Initial enzyme velocities were determined by linear regression using Agilent Cary WinUV Software over the linear range of the reaction (typically between 0 to 1 min), plotted against the concentration of the substrate, and fitted to the Michaelis–Menten or allosteric sigmoidal nonlinear regression equations using GraphPad Prism 6.

Data set [4] has as its system CN(C)[C@@H]1C(O)=C(C(N)=O)C(=O)[C@@]2(O)C(O)=C3C(=O)c4c(O)c(NC(=O)CN5CCCC5)cc(F)c4C[C@H]3C[C@@H]12. Nature of the data set: purified protein, by the assay type. Conditions: pH 8.5.
Data set [5] relates to [H][C@@]12Cc3c(N(C)C)cc(CNCC(C)(C)C)c(O)c3C(=O)C1=C(O)[C@]1(O)C(=O)C(C(N)=O)=C(O)[C@@H](N(C)C)[C@]1([H])C2. Nature of the data set: purified protein, by the assay type. The conditions noted are these: pH 8.5.
For data set [6], the system named is Cc1c2c(c(O)c3c(O)cccc13)C(=O)[C@]1(O)C(=O)C(C(N)=O)=C(O)[C@@H](N(C)C)[C@@H]1C2. Nature of the data set: purified protein, by the assay type. Conditions: other: compound as substrate of Tet(X6), Michaelis-Menten fit, pH 8.5.
The subject of data set [7] is CN(C)c1cc(NC(=O)CNC(C)(C)C)c(O)c2c1C[C@H]1C[C@H]3[C@H](N(C)C)C(O)=C(C(N)=O)C(=O)[C@@]3(O)C(O)=C1C2=O. Nature of the data set: purified protein, by the assay type. Conditions: pH 8.5.
The subject of data set [8] is CN(C)[C@@H]1C(O)=C(C(N)=O)C(=O)[C@@]2(O)C(O)=C3C(=O)c4c(O)cccc4[C@@](C)(O)[C@H]3C[C@@H]12. Nature of the data set: purified protein, by the assay type. Conditions: other: compound as substrate of Tet(X6), Michaelis-Menten fit, pH 8.5.
[9] abbreviates: [Sub] 3.8961 μM, trials 1-3, absorbance 400 nm (440 nm for aTC).
The mark [10] stands for this setting: [Sub] 6.16883 μM, trials 1-3, absorbance 400 nm (440 nm for aTC).
The mark [11] stands for this setting: [Sub] 8.11688 μM, trials 1-3, absorbance 400 nm (440 nm for aTC).
The mark [12] stands for this setting: [Sub] 10.0649 μM, trials 1-3, absorbance 400 nm.
Setting [13] is: [Sub] 29.8701 μM, trials 1-3, absorbance 400 nm (440 nm for aTC).
The mark [14] stands for this setting: [Sub] 1.96581 μM, trials 1-3, absorbance 400 nm.
[15] abbreviates: [Sub] 3.93162 μM, trials 1-3, absorbance 400 nm.
The mark [16] stands for this setting: [Sub] 5.89744 μM, trials 1-3, absorbance 400 nm.
The mark [17] stands for this setting: [Sub] 7.86325 μM, trials 1-3, absorbance 400 nm.
Where [18] appears, read: [Sub] 9.82906 μM, trials 1-3, absorbance 400 nm.
Setting [19] is: [Sub] 20.641 μM, trials 1-3, absorbance 400 nm.
Setting [20] is: [Sub] 30.4701 μM, trials 1-3, absorbance 400 nm.
Setting [21] is: other: compound as substrate of Tet(X6), Michaelis-Menten fit.
Setting [22] is: other: supplementary source data, [Sub] in μM.

Where “and” joins values, the source holds several entries; their conditions need not be identical. Equal values may be shown once. Read-outs that look alike come from different tables or passages of the source.

Chain of Tet(X6) (A0A6I7DAX3 entry or part of it): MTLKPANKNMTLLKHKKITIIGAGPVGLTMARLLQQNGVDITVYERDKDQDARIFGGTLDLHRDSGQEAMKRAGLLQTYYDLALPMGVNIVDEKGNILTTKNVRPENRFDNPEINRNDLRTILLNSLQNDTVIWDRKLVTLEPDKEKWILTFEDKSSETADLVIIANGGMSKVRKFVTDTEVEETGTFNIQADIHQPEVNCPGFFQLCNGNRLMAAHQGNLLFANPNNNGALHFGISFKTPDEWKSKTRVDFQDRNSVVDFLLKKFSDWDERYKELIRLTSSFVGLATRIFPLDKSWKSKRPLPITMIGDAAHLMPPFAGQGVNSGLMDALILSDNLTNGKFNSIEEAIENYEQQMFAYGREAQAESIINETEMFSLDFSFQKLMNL

For the compound `CN(C)c1ccc(O)c2c1C[C@H]1C[C@H]3[C@H](N(C)C)C(O)=C(C(N)=O)C(=O)[C@@]3(O)C(O)=C1C2=O` [minocycline], in the data set on Tet(X2), the “reduction of apparent Km by point mutation Thr280Ala in Tet(X2)” value was “two-fold”.
For orientation: MIC means the smallest concentration in the dilution series that meets the test's criterion for growth inhibition. As for `CN(C)[C@@H]1C(O)=C(C(N)=O)C(=O)[C@@]2(O)C(O)=C3C(=O)c4c(O)c(NC(=O)CN5CCCC5)cc(F)c4C[C@H]3C[C@@H]12` [ERA, eravacycline], the MIC in data set [1] was determined as 0.25 µg/mL; in data set [2] (20 h) it was 8 µg/mL; in data set [3] it was 4 µg/mL. The “Slope (initial velocity of substrate degradation)” value (“Slope” below) at Tet(X6) (setting [9]) was 0.0062 and 0.0046 and 0.0039; at Tet(X6) (setting [10]), 0.0169 and 0.0106 and 0.0133; on Tet(X6) (setting [11]), 0.0312 and 0.0317 and 0.0293; on Tet(X6) (setting [12]), 0.0442 and 0.0406 and 0.047; at Tet(X6) ([Sub] 20.1299 μM, trials 1-3, absorbance 400 nm (440 nm for aTC)) it was 0.0511 and 0.0571 and 0.0722; on Tet(X6) (setting [13]) it was 0.0798 and 0.0764 and 0.0969. Further, the “Slope” value at Tet(X6) ([Sub] 64.9351 μM, trials 1-2, absorbance 400 nm) was 0.1162 and 0.1096. Further, the “Sigmoidal curve fit, best-fit Kprime” value at Tet(X6) turned out to be 84.21. Further, at Tet(X6), the “Sigmoidal curve fit, best-fit Vmax” value stood at 0.1315. The “Sigmoidal curve fit, best-fit h” value at Tet(X6) is 1.474. Further, the “Sigmoidal curve fit, best-fit Khalf” value at Tet(X6) was determined as 20.22. For the same compound, the “Michaelis-menten nonlinear fit, best-fit Kcat” value on Tet(X6) turned out to be 0.5027. The “Michaelis-menten nonlinear fit, best-fit Vmax” value on Tet(X6) was determined as 0.2011.
Regarding `CN(C)[C@@H]1C(O)=C(C(N)=O)C(=O)[C@@]2(O)C(O)=C3C(=O)c4c(O)ccc(Cl)c4[C@@](C)(O)[C@H]3C[C@@H]12` [CTC, chlortetracycline], the MIC in [1] is 2 µg/mL; in [2], 128 µg/mL; in data set [3], 32 µg/mL.
Consider `CN(C)c1cc(NC(=O)CNC(C)(C)C)c(O)c2c1C[C@H]1C[C@H]3[C@H](N(C)C)C(O)=C(C(N)=O)C(=O)[C@@]3(O)C(O)=C1C2=O` [TIG, tigecycline], for which the MIC in data set [1] stood at 0.5 µg/mL; in data set [2] (20 h) it was 4 µg/mL; in data set [3] it was 2 µg/mL. The “Slope” value at Tet(X6) (setting [14]) was 0.00897 and 0.01087 and 0.008562; on Tet(X6) (setting [15]), 0.01529 and 0.0186 and 0.0147; at Tet(X6) (setting [16]), 0.02792 and 0.01914 and 0.0183; on Tet(X6) (setting [17]), 0.03155 and 0.02526 and 0.02718; at Tet(X6) (setting [18]), 0.02741 and 0.02394 and 0.02598; at Tet(X6) (setting [19]), 0.03075 and 0.05034 and 0.0363. The “Slope” value at Tet(X6) (setting [20]) was 0.05374 and 0.04632 and 0.03822. Further, on Tet(X6), the “Michaelis-menten nonlinear fit, best-fit Kcat” value is 0.1574. Moreover, on Tet(X6), the “Michaelis-menten nonlinear fit, best-fit Vmax” value is 0.06296 and 0.06154.
Broadly, the Km is the substrate concentration at which the rate is half of its maximum. The kcat is the number of substrate molecules converted per active site and unit of time at saturation. By kcat/Km is commonly meant the turnover number divided by the Michaelis constant. Regarding Tet(X6) (Proteus columbae), the Km in data set [4] (setting [21]) came out at 47 µM; in data set [4] (setting [22]) it was 46.6 µM; in data set [5] (setting [21]), 18 µM; in [5] (setting [22]), 18.4 µM; in data set [6], 6 µM; in data set [7] (setting [21]) it was 12 µM. Besides, the Km in data set [7] (setting [22]) is 11.8 µM and 11.1 µM. The kcat in data set [4] (setting [21]) is 0.0083 ± 0.0017 s⁻¹; in [5] (setting [21]), 0.00333 ± 0.00033 s⁻¹; in [7] (setting [21]), 0.00267 ± 0.00033 s⁻¹; in data set [8], 0.00433 ± 0.00017 s⁻¹. Moreover, the kcat/Km is 183 ± 67 M⁻¹ s⁻¹ in data set [4] (setting [21]), 183 ± 50 M⁻¹ s⁻¹ in [5] (setting [21]), 200 ± 50 M⁻¹ s⁻¹ in [6] and 217 ± 67 M⁻¹ s⁻¹ in [7] (setting [21]).
In the case of `CN(C)c1cc(CNCC(C)(C)C)c(O)c2c1C[C@H]1C[C@H]3[C@H](N(C)C)C(O)=C(C(N)=O)C(=O)[C@@]3(O)C(O)=C1C2=O` [OMA, omadacycline], the MIC in data set [1] was determined as 2 µg/mL; in data set [2] (20 h), 64 µg/mL; in [3], 16 µg/mL. The “Slope” value on Tet(X6) ([Sub] 1.94805 μM, trials 1-3, absorbance 400 nm (440 nm for aTC)) is 0.0061 and 0.0058 and 0.0045; on Tet(X6) (setting [9]), 0.0076; at Tet(X6) (setting [10]) it was 0.0203 and 0.0178 and 0.0171; on Tet(X6) (setting [11]) it was 0.0286 and 0.0269 and 0.0241; on Tet(X6) (setting [12]) it was 0.0336 and 0.0293 and 0.0307; at Tet(X6) (setting [13]), 0.0474 and 0.044 and 0.0515. In addition, the “Sigmoidal curve fit, best-fit Kprime” value on Tet(X6) was found to be 61.85. Also, the “Sigmoidal curve fit, best-fit Vmax” value at Tet(X6) is 0.05144. In addition, the “Sigmoidal curve fit, best-fit h” value at Tet(X6) was 1.97. The “Sigmoidal curve fit, best-fit Khalf” value at Tet(X6) is reported as 8.114. At Tet(X6), the “Michaelis-menten nonlinear fit, best-fit Kcat” value turned out to be 0.1969. Further, the “Michaelis-menten nonlinear fit, best-fit Vmax” value on Tet(X6) was determined as 0.07875.
With `CN(C)[C@@H]1C(O)=C(C(N)=O)C(=O)[C@@]2(O)C(O)=C3C(=O)c4c(O)cccc4[C@@](C)(O)[C@H]3C[C@@H]12` [TET, tetracycline], the MIC came to 1 µg/mL in data set [1] and 32 µg/mL in [3]. Further, the “Slope” value on Tet(X6) (setting [14]) was 0.0375 and 0.04014 and 0.02364; at Tet(X6) (setting [15]) it was 0.04215 and 0.04584 and 0.0387; at Tet(X6) (setting [16]) it was 0.05933 and 0.04704 and 0.05922; at Tet(X6) (setting [17]), 0.06246 and 0.0528 and 0.05754; at Tet(X6) (setting [18]) it was 0.05855 and 0.06072 and 0.05694; at Tet(X6) (setting [19]), 0.07878 and 0.08328 and 0.07938. Also, the “Slope” value on Tet(X6) (setting [20]) is 0.0879 and 0.09378 and 0.09744. For the same compound, the “Michaelis-menten nonlinear fit, best-fit Kcat” value on Tet(X6) was 0.2636. Besides, on Tet(X6), the “Michaelis-menten nonlinear fit, best-fit Vmax” value was 0.1054 and 0.1047.
As for `C[C@H]1c2cccc(O)c2C(=O)C2=C(O)[C@]3(O)C(=O)C(C(N)=O)=C(O)[C@@H](N(C)C)[C@@H]3[C@@H](O)[C@@H]21` [DOX, doxycycline], the MIC in [1] was 1 µg/mL; in data set [2] (20 h), 32 µg/mL; in data set [3] it was 16 µg/mL.
